Source: US7592503B2, “Mammalian telophase oocyte enucleation” (Trustees of Tufts College, priority 1998, dated 2009)

Tests used:
[1] = tested on: mouse metaphase II oocytes; test: Treatment-induced nuclear chromatin enucleation of activated oocytes (H33342 staining, fluorescence microscopy); assay type: cell-based; conditions: for rate of treatment-induced chromatin enucleation: ethanol- or ionomycin-activated B6D2 oocytes, Taxol 5 μg/ml, Cycloheximide 10 μg/ml, Demecolcine 0.4 μg/ml in PBS+10% FBS, 0.5-1.5 h post activation; for rate of treatment-induced chromatin enucleation (range in parentheses): same treatments, range printed in parentheses
Source text: Advances in somatic cell nuclear transfer (NT) methodology have seen the procession of cloned sheep, cows, mice and goats. Despite the clear potential use of this technology for genetic manipulations, the success rates remain woefully low. The limitations associated with nuclear transfer include the selection and preparation of competent donor cytoplasts. The cytoplasm plays a vital role in genome reprogramming and reactivation and therefore manipulations that compromise oocyte developmental competence are detrimental to the success of nuclear transfer. The present study was directed towards determining alternative methods to more efficiently prepare competent cytoplasts for nuclear transfer procedures. In experiment 1, in vivo-produced mouse metaphase II oocytes (B6D2, aguti, recovered at 16-20 h post hCG) were activated by exposure to either 7% ethanol or 2 μm ionomycin in PBS+10% FBS (5 min.). At the onset of initial second polar body formation (10-15 min. post activation) and extrusion (anaphase/telophase stage), oocytes were randomly allocated to control (cultured 0.5-1.5 h) or incubated with Taxol® (5 μg/ml), Cycloheximide (10 μg/ml) or in Demecolcine (0.4 μg/ml) in PBS+10% FBS until the second polar body was extruded (0.5-1.5 h post activation) to induce nuclear chromatin enucleation. Oocytes were stained (H33342, 5 μg/ml) to confirm the extent of nuclear chromatin enucleation using fluorescence microscopy. […] In experiment 2, Demecolcine-induced enucleated cytoplasts were used for nuclear transfer recipients. Donor nuclei were prepared from cumulus cells (Black Swiss) by partial lysis (1% sodium citrate) followed by aspiration using the injection pipette (7 um). Donor nuclei were injected into cytoplasts pretreated with Cytochalasin-B (5 μg/ml, 15 min.). Reconstructed NT embryos were subsequently co-cultured (72-96 h) with oviductal cells in drops of M-199+10% FBS. The cleavage rate was 70% (85/121) and the rate of blastocyst formation was 42% (51/121). Pregnancies were established in 2/3 recipients (CD1, white) following uterine embryo transfer (10 embryos/recipient). A total of 14 black female pups were born (47%, 14/30), seven of which were stillborn from 1 recipient and the other seven were born live (23%, 7/30) but 3 were cannibalized within 24 h. The 4 cloned pups were normal and healthy, and their fertility is being assessed. […] Moreover, cytoplasts derived from this enucleation procedure are competent to support genome reactivation and fetal development to term. This technically simple approach may provide a more efficient method to produce large numbers of cytoplasts for cloning procedures.

[2] = tested on: mouse oocytes; test: Activation of metaphase II oocytes to Telophase II stage in vitro; assay type: cell-based; conditions: ionomycin 4 μM, 5 min; 3 replicate experiments
Protocol: Oocytes were collected from superovulated mice by flushing oviducts to collect metaphase II stage oocytes. Oocytes were then activated by one of two methods to reach the Telophase II state in vitro: culture-induced Ca^2+ activation or ionomycin activation (4 μM, 5 min), and enucleated. Karyoplasts were prepared from cumulus cells (natural G0 stage) and nuclear transfer was conducted followed by electrical fusion with Telophase II cytoplasts.

Row | Compound | rate of treatment-induced chromatin enucleation [1] [%] | rate of treatment-induced chromatin enucleation (range in parentheses) [1] | Activation, Number (activated/treated oocytes) [2] | Activation, Percent [2] [%]
1 | C[C@@H]1C[C@@H]([C@H](O)CC2CC(=O)NC(=O)C2)C(=O)[C@@H](C)C1 [Cycloheximide] | 16.3 | 0-24% | – | –
2 | C[C@H](CCC(=O)O)C[C@H](C)C[C@H](C)C(=O)/C=C(\O)[C@H](C)C[C@H](C)C/C=C/[C@@H](C)[C@@H](O)[C@@H](C)[C@@H](O)C[C@@H]1CC[C@@](C)([C@H]2CC[C@@](C)([C@@H](C)O)O2)O1 [Ionomycin, ionomycin] | – | – | 46/50 | 92
3 | CC(=O)O[C@H]1C(=O)[C@@]2(C)[C@H]([C@H](OC(=O)c3ccccc3)[C@]3(O)C[C@H](OC(=O)[C@H](O)[C@@H](NC(=O)c4ccccc4)c4ccccc4)C(C)=C1C3(C)C)[C@]1(OC(C)=O)CO[C@@H]1C[C@@H]2O [Taxol®, paclitaxel] | 3.6 | 0-10% | – | –
4 | CN[C@H]1CCc2cc(OC)c(OC)c(OC)c2-c2ccc(OC)c(=O)cc21 [Demecolcine] | 54 | 27-70% | – | –
